Measurements: patent US8211935B2, “Heterocyclic derivatives for modulation of calcium channels” (Vertex Pharmaceuticals Incorporated, priority 2004, dated 2012)

These molecules were tested against T1, CaV2.2 (Homo sapiens, UniProt Q00975) (assay: VIPR optical membrane potential assay with electrical stimulation). Settings: not given.
T1 construct: expressed in transfected cells; host or cells: HEK293
Format: cell-based
Procedure, shortened: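 HEK293 cells stably expressing CaV2.2, stained with CC2-DMPE (10 μM final) and oxonol voltage-sensitive dyes, compound added with BaCl2. Membrane potential response evoked by 3-5 s electrical stimulation. Read as background-subtracted 460/580 nm emission ratio, response R=Rf/Ri, normalized to mibefradil positive and no-drug negative controls.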

T1 sequence (Q00975 whole entry): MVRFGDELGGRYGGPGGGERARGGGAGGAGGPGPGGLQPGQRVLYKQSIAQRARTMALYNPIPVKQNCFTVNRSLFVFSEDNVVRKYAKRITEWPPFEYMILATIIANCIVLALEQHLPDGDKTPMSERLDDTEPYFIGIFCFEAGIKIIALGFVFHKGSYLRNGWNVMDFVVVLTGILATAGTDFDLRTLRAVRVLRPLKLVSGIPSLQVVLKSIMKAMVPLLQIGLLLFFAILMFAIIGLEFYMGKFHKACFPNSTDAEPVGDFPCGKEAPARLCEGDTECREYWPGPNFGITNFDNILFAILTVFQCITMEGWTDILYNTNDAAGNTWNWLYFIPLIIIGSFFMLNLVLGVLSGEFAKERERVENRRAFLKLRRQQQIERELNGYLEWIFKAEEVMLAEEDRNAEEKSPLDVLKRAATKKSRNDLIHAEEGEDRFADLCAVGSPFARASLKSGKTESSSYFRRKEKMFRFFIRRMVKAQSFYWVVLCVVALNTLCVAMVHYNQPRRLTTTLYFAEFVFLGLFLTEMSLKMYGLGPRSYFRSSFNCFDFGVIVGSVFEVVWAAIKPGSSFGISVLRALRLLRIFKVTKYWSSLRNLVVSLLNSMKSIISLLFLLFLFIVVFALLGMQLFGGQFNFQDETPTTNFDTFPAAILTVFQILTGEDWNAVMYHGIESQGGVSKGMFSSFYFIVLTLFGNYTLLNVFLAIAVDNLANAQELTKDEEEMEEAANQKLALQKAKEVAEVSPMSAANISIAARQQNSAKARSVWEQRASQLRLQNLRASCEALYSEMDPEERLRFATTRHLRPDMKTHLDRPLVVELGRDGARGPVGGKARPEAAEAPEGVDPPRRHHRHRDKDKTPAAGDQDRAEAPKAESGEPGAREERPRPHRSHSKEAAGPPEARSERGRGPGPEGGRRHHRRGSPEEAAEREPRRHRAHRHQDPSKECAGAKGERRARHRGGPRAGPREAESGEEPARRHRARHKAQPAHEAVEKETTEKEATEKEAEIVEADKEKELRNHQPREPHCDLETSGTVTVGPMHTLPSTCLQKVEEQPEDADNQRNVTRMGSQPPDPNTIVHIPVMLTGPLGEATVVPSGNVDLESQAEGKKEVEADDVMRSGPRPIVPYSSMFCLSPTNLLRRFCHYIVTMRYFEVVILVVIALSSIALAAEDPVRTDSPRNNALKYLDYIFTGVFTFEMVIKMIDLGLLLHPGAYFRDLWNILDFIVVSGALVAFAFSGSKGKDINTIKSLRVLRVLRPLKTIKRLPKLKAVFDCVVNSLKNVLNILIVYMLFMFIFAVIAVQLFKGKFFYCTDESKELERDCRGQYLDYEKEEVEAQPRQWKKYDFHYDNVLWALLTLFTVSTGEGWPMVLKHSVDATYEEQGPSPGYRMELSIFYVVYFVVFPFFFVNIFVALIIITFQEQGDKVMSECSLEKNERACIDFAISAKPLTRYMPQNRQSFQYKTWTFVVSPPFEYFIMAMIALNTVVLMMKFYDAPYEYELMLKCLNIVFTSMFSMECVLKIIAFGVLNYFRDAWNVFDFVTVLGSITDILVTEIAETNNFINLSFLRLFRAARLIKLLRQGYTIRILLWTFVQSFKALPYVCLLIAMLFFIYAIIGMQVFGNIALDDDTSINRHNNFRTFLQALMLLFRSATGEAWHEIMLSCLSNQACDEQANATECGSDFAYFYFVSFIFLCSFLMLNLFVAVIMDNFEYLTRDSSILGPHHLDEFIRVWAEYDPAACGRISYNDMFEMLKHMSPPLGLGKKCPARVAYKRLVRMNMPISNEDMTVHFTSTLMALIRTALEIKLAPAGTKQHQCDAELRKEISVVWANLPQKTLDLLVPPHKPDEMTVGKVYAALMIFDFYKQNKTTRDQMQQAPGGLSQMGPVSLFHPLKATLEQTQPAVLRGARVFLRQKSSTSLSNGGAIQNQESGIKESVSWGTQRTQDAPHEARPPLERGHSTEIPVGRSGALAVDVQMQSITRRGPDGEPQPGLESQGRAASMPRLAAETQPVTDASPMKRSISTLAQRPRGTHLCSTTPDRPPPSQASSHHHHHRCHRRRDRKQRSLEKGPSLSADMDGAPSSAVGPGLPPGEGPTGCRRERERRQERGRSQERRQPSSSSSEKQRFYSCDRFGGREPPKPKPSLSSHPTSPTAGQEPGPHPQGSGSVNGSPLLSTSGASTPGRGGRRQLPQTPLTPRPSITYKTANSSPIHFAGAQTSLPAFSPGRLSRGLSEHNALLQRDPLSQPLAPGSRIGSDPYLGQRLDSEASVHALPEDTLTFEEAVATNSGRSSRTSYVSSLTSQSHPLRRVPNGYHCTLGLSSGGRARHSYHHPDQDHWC
T1 sequence (P54284 whole entry partner): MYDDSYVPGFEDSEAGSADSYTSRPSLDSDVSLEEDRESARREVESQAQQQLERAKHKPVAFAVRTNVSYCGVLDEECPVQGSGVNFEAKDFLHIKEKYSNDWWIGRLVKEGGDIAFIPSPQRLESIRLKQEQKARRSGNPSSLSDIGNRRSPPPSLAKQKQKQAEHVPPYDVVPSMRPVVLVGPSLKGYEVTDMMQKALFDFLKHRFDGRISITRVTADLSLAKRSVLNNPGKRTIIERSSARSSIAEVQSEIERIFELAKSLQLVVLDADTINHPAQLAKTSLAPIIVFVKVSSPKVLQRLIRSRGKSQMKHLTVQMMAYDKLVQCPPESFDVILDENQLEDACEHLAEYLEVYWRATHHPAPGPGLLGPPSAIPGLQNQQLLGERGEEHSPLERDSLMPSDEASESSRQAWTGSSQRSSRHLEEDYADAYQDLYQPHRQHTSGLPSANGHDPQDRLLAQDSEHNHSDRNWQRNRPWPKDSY
T1 sequence (P54289 25-946 partner limits assumed): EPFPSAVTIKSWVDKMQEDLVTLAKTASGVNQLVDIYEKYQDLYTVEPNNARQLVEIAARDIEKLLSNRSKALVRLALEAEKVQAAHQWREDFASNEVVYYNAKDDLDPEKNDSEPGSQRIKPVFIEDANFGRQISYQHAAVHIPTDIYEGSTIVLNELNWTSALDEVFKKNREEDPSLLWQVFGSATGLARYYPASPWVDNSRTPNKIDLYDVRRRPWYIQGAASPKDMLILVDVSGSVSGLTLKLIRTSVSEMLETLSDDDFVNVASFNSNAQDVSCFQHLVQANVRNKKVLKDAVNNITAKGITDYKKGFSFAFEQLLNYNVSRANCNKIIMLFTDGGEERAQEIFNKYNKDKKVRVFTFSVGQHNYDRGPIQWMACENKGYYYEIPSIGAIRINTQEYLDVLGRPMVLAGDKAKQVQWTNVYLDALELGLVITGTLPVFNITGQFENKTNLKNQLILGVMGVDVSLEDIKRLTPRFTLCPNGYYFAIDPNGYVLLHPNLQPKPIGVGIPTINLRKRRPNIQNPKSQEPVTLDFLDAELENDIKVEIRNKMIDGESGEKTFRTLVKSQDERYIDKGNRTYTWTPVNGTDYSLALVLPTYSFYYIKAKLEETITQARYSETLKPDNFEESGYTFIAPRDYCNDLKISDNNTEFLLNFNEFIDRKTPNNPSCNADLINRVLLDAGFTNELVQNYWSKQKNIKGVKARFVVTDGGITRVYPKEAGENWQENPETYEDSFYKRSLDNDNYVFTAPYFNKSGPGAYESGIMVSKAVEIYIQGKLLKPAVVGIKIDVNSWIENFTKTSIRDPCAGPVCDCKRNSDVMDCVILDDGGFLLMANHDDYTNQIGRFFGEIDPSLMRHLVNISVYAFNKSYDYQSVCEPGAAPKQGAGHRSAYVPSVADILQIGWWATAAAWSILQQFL
T1 sequence (P54289 947-1103 partner limits assumed): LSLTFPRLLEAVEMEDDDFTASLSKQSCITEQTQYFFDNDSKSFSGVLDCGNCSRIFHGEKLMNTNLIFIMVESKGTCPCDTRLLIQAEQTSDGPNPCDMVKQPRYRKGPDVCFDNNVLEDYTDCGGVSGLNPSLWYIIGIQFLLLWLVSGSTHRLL

Row | Compound | IC50 [µM]
1 | Cc1c(C(=O)N2CCC3(CC2)OCCO3)oc2ccc(S(=O)(=O)N3CCC(C)CC3)cc12 [compound 287] | 5 to 20
2 | Cc1c(C(=O)N2CCC3(CC2)OCCO3)oc2ccc(S(=O)(=O)N3CCCC(C)C3)cc12 (stereo not shown) [compound 299] | 5 to 20
3 | Cc1c(C(=O)N2CCC3(CC2)OCCO3)oc2ccc(S(=O)(=O)N3CC(C)CC(C)C3)cc12 (stereo not shown) [compound 343] | 5 to 20
4 | CC1CC(C)CN(S(=O)(=O)c2ccc3[nH]c(C(=O)N4CCC5(CC4)OCCO5)cc3c2)C1 (stereo not shown) [compound 344] | < 5

Same assay, conditions: Table 3, biological assay data; read-out: IC50

Row | Compound | IC50 [µM]
5 | CCN(CC)C(=O)c1cc2cc(S(=O)(=O)N3CCC(C)CC3)ccc2o1 [compound 268] | < 5
6 | Cc1c(C(=O)N2CCC(C)CC2)[nH]c2ccc(S(=O)(=O)N3CCC(C)CC3)cc12 [compound 269] | 5 to 20
7 | O=C(NC1CC1)c1cc2cc(N(C3CCCCC3)S(=O)(=O)c3ccccc3)ccc2[nH]1 [compound 270] | 5 to 20
8 | CC1CC(C)CN(S(=O)(=O)c2ccc3oc(C(=O)NC(C)C)cc3c2)C1 (stereo not shown) [compound 271] | < 5
9 | O=C(c1cc2cc(S(=O)(=O)N3CCCCCC3)ccc2[nH]1)N1CCCC1 [compound 272] | < 20
10 | CC1CCN(C(=O)c2cc3cc(S(=O)(=O)N4CCC(C)CC4)ccc3o2)CC1 [compound 273] | < 5
11 | CC1CC(C)CN(S(=O)(=O)c2ccc3[nH]c(C(=O)NC(C)C)cc3c2)C1 (stereo not shown) [compound 274] | < 5
12 | CC1CC(C)CN(S(=O)(=O)c2ccc3[nH]c(C(=O)NCC4CCOCC4)cc3c2)C1 (stereo not shown) [compound 275] | < 5
13 | CC1CC(C)CN(S(=O)(=O)c2ccc3oc(C(=O)NCc4ccccc4)cc3c2)C1 (stereo not shown) [compound 276] | < 5
14 | Cc1c(C(=O)N(C)C)oc2ccc(S(=O)(=O)N3CCCCC3)cc12 [compound 277] | < 20
15 | CCN(CC)S(=O)(=O)c1ccc2oc(C(=O)N(C(C)C)C(C)C)c(C)c2c1 [compound 278] | 5 to 20
16 | Cc1c(C(=O)N2CCC(C)CC2)oc2ccc(S(=O)(=O)N3CCCCC3)cc12 [compound 279] | 5 to 20
17 | Cc1c(C(=O)N2CCCC(C)C2)oc2ccc(S(=O)(=O)N3CCCCC3)cc12 (stereo not shown) [compound 280] | 5 to 20
18 | Cc1c(C(=O)NCC2CCCO2)[nH]c2ccc(S(=O)(=O)N3CC(C)CC(C)C3)cc12 (stereo not shown) [compound 281] | < 5
19 | COc1ccc(CNC(=O)c2oc3ccc(S(=O)(=O)N4CCC(C)CC4)cc3c2C)cc1 [compound 282] | < 5
20 | Cc1c(C(=O)NCc2ccccc2)[nH]c2ccc(S(=O)(=O)N3CC(C)CC(C)C3)cc12 (stereo not shown) [compound 283] | < 5
21 | Cc1c(C(=O)N(C(C)C)C(C)C)oc2ccc(S(=O)(=O)N3CC(C)CC(C)C3)cc12 (stereo not shown) [compound 284] | < 5
22 | CC1CCN(S(=O)(=O)c2ccc3[nH]c(C(=O)N(C)Cc4ccccc4)cc3c2)CC1 [compound 285] | < 5
23 | CS(=O)(=O)Nc1ccc2[nH]c(C(=O)NC3CC3)cc2c1 [compound 286] | < 20
24 | Cc1ccc(NS(=O)(=O)c2ccc3oc(C(=O)NC4CC4)c(C)c3c2)cc1 [compound 288] | 5 to 20
25 | CC1CC(C)CN(S(=O)(=O)c2ccc3[nH]c(C(=O)NCCc4ccccc4)cc3c2)C1 (stereo not shown) [compound 289] | < 5
26 | Cc1c(C(=O)N2CCN(C)CC2)[nH]c2ccc(S(=O)(=O)N3CCC(C)CC3)cc12 [compound 290] | 5 to 20
27 | CCN(CC)S(=O)(=O)c1ccc2oc(C(=O)NCCc3ccccc3)c(C)c2c1 [compound 291] | 5 to 20
28 | COc1ccc(S(=O)(=O)n2c(C(=O)N3CCCCC3)cc3cc(S(=O)(=O)N4CC(C)CC(C)C4)ccc32)cc1 (stereo not shown) [compound 292] | < 5
29 | CC1CCN(S(=O)(=O)c2ccc3oc(C(=O)N4CC(C)CC(C)C4)cc3c2)CC1 (stereo not shown) [compound 293] | < 5

Row | Compound | IC50 [µM]
30 | Cc1c(C(=O)NC2CCCC2)oc2ccc(S(=O)(=O)N3CCCCCC3)cc12 [compound 294] | < 5
31 | CNC(=O)c1cc2cc(S(=O)(=O)N3CCCCCC3)ccc2o1 [compound 295] | 5 to 20
32 | O=C(NC1CCCCC1)c1cc2cc(S(=O)(=O)N3CCCCCC3)ccc2[nH]1 [compound 296] | < 20
33 | Cc1c(C(=O)N2CCCCC2C)[nH]c2ccc(S(=O)(=O)N3CC(C)CC(C)C3)cc12 (stereo not shown) [compound 297] | < 5
34 | CCN(CC)S(=O)(=O)c1ccc2oc(C(=O)NCc3ccc(C)cc3)c(C)c2c1 [compound 298] | 5 to 20
35 | Cc1c(C(=O)N2CCCCC2)oc2ccc(S(=O)(=O)N3CCCC(C)C3)cc12 (stereo not shown) [compound 300] | < 5
36 | CCNC(=O)c1[nH]c2ccc(S(=O)(=O)N3CCC(C)CC3)cc2c1C [compound 301] | 5 to 20
37 | Cc1c(C(=O)NC2CC2)oc2ccc(S(=O)(=O)NCc3ccncc3)cc12 [compound 302] | < 20
38 | CNC(=O)c1cc2cc(S(=O)(=O)N3CCCCCC3)ccc2[nH]1 [compound 303] | < 5
39 | O=C(NC1CCCC1)c1cc2cc(S(=O)(=O)N3CCCCCC3)ccc2o1 [compound 304] | < 5
40 | Cc1c(C(=O)NCc2ccccc2)oc2ccc(S(=O)(=O)N3CCCCC3)cc12 [compound 305] | 5 to 20
41 | CC1CCN(S(=O)(=O)c2ccc3[nH]cc(C(N)=O)c3c2)CC1 [compound 306] | < 20
42 | Cc1c(C(=O)N2CCC(C)CC2)oc2ccc(S(=O)(=O)N3CCCCCC3)cc12 [compound 307] | < 5
43 | CCN(CC)S(=O)(=O)c1ccc2oc(C(=O)N(C)Cc3ccccc3)c(C)c2c1 [compound 308] | < 5
44 | Cc1c(C(=O)NC2CCCCC2)[nH]c2ccc(S(=O)(=O)N3CCCCCC3)cc12 [compound 309] | < 5
45 | CCNC(=O)c1oc2ccc(S(=O)(=O)N3CCCC(C)C3)cc2c1C (stereo not shown) [compound 310] | 5 to 20
46 | CC1CCN(S(=O)(=O)c2ccc3oc(C(=O)N4CCCCC4)cc3c2)CC1 [compound 311] | < 5
47 | CN(c1ccc2[nH]c(C(=O)NC3CC3)cc2c1)S(=O)(=O)c1ccccc1 [compound 312] | 5 to 20
48 | CC1CCN(S(=O)(=O)c2ccc3[nH]c(C(=O)N4CCN(C)CC4)cc3c2)CC1 [compound 313] | 5 to 20
49 | CCN(CC)C(=O)c1cc2cc(S(=O)(=O)N3CC(C)CC(C)C3)ccc2n1CC(O)CN(C)C (stereo not shown) [compound 314] | 5 to 20
50 | CCN(CC)C(=O)c1cc2cc(S(=O)(=O)N3CCC(C)CC3)ccc2[nH]1 [compound 315] | < 5
51 | Cc1c(C(=O)NC2CC2)oc2ccc(S(=O)(=O)Nc3ncns3)cc12 [compound 316] | < 20
52 | Cc1c(C(=O)N(C)Cc2ccccc2)oc2ccc(S(=O)(=O)N3CCCCCC3)cc12 [compound 317] | < 5
53 | CCN(CC)S(=O)(=O)c1ccc2oc(C(=O)NCCCc3ccccc3)c(C)c2c1 [compound 318] | 5 to 20
54 | CC1CCN(S(=O)(=O)c2ccc3[nH]c(C(=O)N4CC(C)CC(C)C4)cc3c2)CC1 (stereo not shown) [compound 319] | 5 to 20

Row | Compound | IC50 [µM]
55 | Cc1c(C(=O)NCCC2=CCCCC2)oc2ccc(S(=O)(=O)N3CCC4(CC3)OCCO4)cc12 [compound 320] | 5 to 20
56 | CCCCN(C)C(=O)c1oc2ccc(S(=O)(=O)N3CC(C)CC(C)C3)cc2c1C (stereo not shown) [compound 321] | < 5
57 | CCN(CC)S(=O)(=O)c1ccc2oc(C(=O)NCCC3CCOCC3)c(C)c2c1 [compound 322] | < 20
58 | CC1CC(C)CN(S(=O)(=O)c2ccc3[nH]c(C(=O)NCCCc4ccccc4)cc3c2)C1 (stereo not shown) [compound 323] | < 5
59 | Cc1c(C(=O)N2CCCC2)[nH]c2ccc(S(=O)(=O)N3CC(C)CC(C)C3)cc12 (stereo not shown) [compound 324] | < 5
60 | CCCCN(C)C(=O)c1oc2ccc(S(=O)(=O)N3CCC(C)CC3)cc2c1C [compound 325] | < 5
61 | CCN(CC)Cc1cc2cc(S(=O)(=O)N3CCC(C)CC3)ccc2[nH]1 [compound 326] | < 5
62 | CC1CC(C)CN(S(=O)(=O)c2ccc3oc(C(=O)NCC4CCOCC4)cc3c2)C1 (stereo not shown) [compound 327] | < 5
63 | CCOC(=O)N1CCN(C(=O)c2oc3ccc(S(=O)(=O)N(CC)CC)cc3c2C)CC1 [compound 328] | < 20
64 | CC1CC(C)CN(S(=O)(=O)c2ccc3[nH]c(C(=O)NC4CCCCC4)cc3c2)C1 (stereo not shown) [compound 329] | 5 to 20
65 | Cc1c(C(=O)N2CCCCCC2)oc2ccc(S(=O)(=O)N3CC(C)CC(C)C3)cc12 (stereo not shown) [compound 330] | < 5
66 | Cc1c(C(=O)NC2CCCCC2)[nH]c2ccc(S(=O)(=O)N3CC(C)CC(C)C3)cc12 (stereo not shown) [compound 331] | < 5
67 | CCN(CC)S(=O)(=O)c1ccc2oc(C(=O)N3CCCC3)c(C)c2c1 [compound 332] | < 20
68 | CC1CC(C)CN(S(=O)(=O)c2ccc3oc(C(=O)N4CCCCC4C)cc3c2)C1 (stereo not shown) [compound 333] | 5 to 20
69 | Cc1c(C(=O)N2CCCCC2C)oc2ccc(S(=O)(=O)N3CCCCCC3)cc12 (stereo not shown) [compound 334] | 5 to 20
70 | O=C(NCCC1CCOCC1)c1cc2cc(S(=O)(=O)N3CCCCCC3)ccc2[nH]1 [compound 335] | < 5
71 | CCOC(=O)C1CCN(C(=O)c2oc3ccc(S(=O)(=O)N4CC(C)CC(C)C4)cc3c2C)CC1 (stereo not shown) [compound 336] | < 5
72 | CCN(CC)S(=O)(=O)c1ccc2oc(C(=O)NCc3ccc(F)cc3)c(C)c2c1 [compound 337] | < 5
73 | CC1CCN(S(=O)(=O)c2ccc3[nH]cc(C(=O)N4CCN(C)CC4)c3c2)CC1 [compound 338] | < 20
74 | CC1CCN(C(=O)c2cc3cc(S(=O)(=O)N4CC(C)CC(C)C4)ccc3o2)CC1 (stereo not shown) [compound 339] | < 5
75 | CC1CCN(S(=O)(=O)c2ccc3[nH]c(C(=O)NCCc4ccccc4)cc3c2)CC1 [compound 340] | < 5
76 | CCN(CC)S(=O)(=O)c1ccc2oc(C(=O)N3CCCCCC3)c(C)c2c1 [compound 341] | 5 to 20
77 | Cc1c(C(=O)N2CCC(C)CC2)[nH]c2ccc(S(=O)(=O)N3CCCCCC3)cc12 [compound 342] | < 5
78 | CC1CCN(S(=O)(=O)c2ccc3[nH]c(C(=O)NCC4CCOCC4)cc3c2)CC1 [compound 345] | < 5
79 | CCOC(=O)N1CCN(C(=O)c2cc3cc(S(=O)(=O)N4CC(C)CC(C)C4)ccc3o2)CC1 (stereo not shown) [compound 346] | < 5
